Data: patent publication US20150175655A1 (priority 2012, published 2015)

molecular target: T1, NS3 genotype 3a protease (UniProt Q81258); test: Ki determination, NS3 protease genotype 3a (fluorogenic depsipeptide substrate); assay type: biochemical, hepatitis C virus; details: 200 pM enzyme, 20 μM NS4A peptide, 2 μM substrate, read-out: Ki 3A
T1 construct: Purified NS3 protease domain (amino acids 1-181) of the genotype 1b and 3a virus were generated as above; fused on or other part: N-terminal hexahistidine tag and rTEV protease cleavage site (vector p28-N6H-Tev-NS3(181)3)
T1 sequence (Q81258 1033-1663): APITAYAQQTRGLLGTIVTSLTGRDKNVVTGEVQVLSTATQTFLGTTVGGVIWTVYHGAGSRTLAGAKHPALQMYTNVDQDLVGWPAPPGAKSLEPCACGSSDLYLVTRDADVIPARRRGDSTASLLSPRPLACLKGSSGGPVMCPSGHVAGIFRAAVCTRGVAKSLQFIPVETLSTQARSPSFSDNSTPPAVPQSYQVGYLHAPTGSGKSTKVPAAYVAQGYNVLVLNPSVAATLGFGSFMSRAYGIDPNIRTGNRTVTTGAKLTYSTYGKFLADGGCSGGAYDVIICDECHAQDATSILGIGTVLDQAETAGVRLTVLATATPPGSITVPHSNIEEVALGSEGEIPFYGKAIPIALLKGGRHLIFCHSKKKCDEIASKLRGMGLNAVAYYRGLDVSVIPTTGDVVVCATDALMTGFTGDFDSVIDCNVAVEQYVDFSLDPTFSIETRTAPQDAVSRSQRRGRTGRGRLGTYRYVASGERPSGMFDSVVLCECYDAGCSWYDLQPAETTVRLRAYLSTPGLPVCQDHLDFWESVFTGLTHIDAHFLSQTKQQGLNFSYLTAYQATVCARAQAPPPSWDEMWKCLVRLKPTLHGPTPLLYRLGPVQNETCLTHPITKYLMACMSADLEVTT
Description: The coding sequences for the genotype 3 HCV protease domain was amplified by RT-PCR using a Titan One Tube RT-PCR Kit (Roche, Indianapolis, Ind.) and RNA extracted from HCV-positive human serum (BBI Diagnostics, MA) using a QIAmp UltraSens Virus Kit (Qiagen, Valencia, Calif.). 5′ PCR primers were designed to encode N-terminal hexahistidine tags and to insert in-frame rTEV protease cleavage sites into the NS3 protease coding sequences. The resulting DNA fragments were cloned into pET28 yielding the expression vectors p28-N6H-Tev-NS3(181)1a and p28-N6H-Tev-NS3(181)3, respectively.
BL21AI bacteria (Invitrogen, Carlsbad, Calif.) were transformed with genotype 1b or 3 NS3 expression vectors and used to inoculate a 20 L fermentation vessel (Sartorius BBI System Inc., Bethlehem, Pa.), containing 18 L of fresh 2YT medium supplemented with 50 μg/mL kanamycin. When cell densities reached an OD600 of 1, the temperature of the cultures was reduced from 37° C. to 28° C. and induction was immediately initiated by the addition of 30 μM ZnSO4, 14 mM L-arabinose and 1 mM Isopropyl β-D-thiogalactoside (IPTG) final concentrations. Cells were harvested by centrifugation four hours post-induction and were stored as frozen pellets at −80° C. prior to NS3 protein purification.
Bacterial pellets collected from the expression of genotype 3 HCV NS3 protease were homogenized in Lysis Buffer (25 mM tris, pH 7.5 buffer containing 150 mM NaCl and 1 mM phenylmethanesulfonyl fluoride (PMSF)) and passed through a microfluidizer at 18,000 pounds/in^2. Homogenized cell lysates were centrifuged at 30,000×g for 30 minutes at 4° C. The resulting P1 pellets were washed with Wash Buffer I (25 mM tris, pH 7.5 containing 1% CHAPS) followed by centrifugation at 10,000×g for 30 minutes at 4° C. […] The resulting P3 pellets were resuspended in Solubilization Buffer (20 ml of 25 mM tris, pH 7.5 containing 150 mM NaCl and 8 M urea) and incubated at 4° C. for one hour. Solubilized proteins were passed through a 0.45 micron filter. Protein concentrations were measured and the solutions were adjusted to 40 mM DTT, incubated for 30 minutes at 4° C. and then quickly diluted into Refolding Buffer (25 mM tris, pH 8.5, 0.8 M Guanidine-HCl, 0.4 M L-Arginine, 10 mM ZnSO4) while stirring. Protein solutions were incubated at 4° C. overnight to allow refolding. Refolded proteases were centrifuged at 30,000×g for 10 minutes to remove residual precipitates. Final protein concentrations were then measured and the NS3 proteases were aliquoted, snap frozen in liquid nitrogen and stored at −80° C.
Purified NS3 protease domain (amino acids 1-181) of the genotype 1b and 3a virus were generated as above. The internally quenched fluorogenic depsipeptide substrate Ac-DED(Edans)-EEAbuψ[COO]ASK(Dabcyl)-NH2 and a synthetic peptide containing the hydrophobic core residues of the NS4A protein cofactor ([…]; NS4A peptide) were obtained from Anaspec, Inc. (San Jose, Calif.). Other chemicals and biochemicals were of reagent grade or better and were purchased from standard suppliers.
Reactions were run at room temperature in buffer consisting of 50 mM HEPES, 40% glycerol, 0.05% Triton X-100, 10 mM DTT, and 10% DMSO. The final assay solutions contained 50 pM NS3 genotype 1b protease or 200 pM genotype 3a protease, 20 μM NS4A peptide, and 4 μM substrate (genotype 1 b) or 2 μM substrate (genotype 3a). Inhibitor concentrations varied from 100 nM to 5 pM in 3-fold dilutions, and no-inhibitor controls were included.
Compound dilutions were made in DMSO at 20× final concentration. Reaction mixtures were prepared in 96-well assay plates. A solution of enzyme and NS4A peptide in assay buffer (25 μL volume with both reagents at 4× final concentration) was mixed with 45 μL assay buffer and 5 μL of either inhibitor or DMSO, and pre-incubated at room temperature for 1 hour. The reaction was started by addition of 25 μL substrate solution at 4× final concentration. […]

Compared with `CC[C@@H]1[C@@H]2CN(C(=O)[C@H](C(C)(C)C)NC(=O)O[C@@H]3C[C@H]3CCCCCc3nc4ccc(OC)cc4nc3O2)[C@@H]1C(=O)N[C@]1(C(=O)NS(=O)(=O)C2(C)CC2)C[C@H]1CC(F)F` [Example 67, (1aR,5S,8S,9S,10R,22aR)-5-tert-butyl-N-[(1R,2S)-2-(2,2-difluoroethyl)-1-{[(1-methylcyclopropyl)sulfonyl]carbamoyl}cyclopropyl]-9-ethyl-14-methoxy-3,6-dioxo-1,1a,3,4,5,6,9,10,18,19,20,21,22,22a-tetradecahydro-8H-7,10-methanocyclopropa[18,19][1,10,3,6]dioxadiazacyclononadecino[11,12-b]quinoxaline-8-carboxamide], `CC[C@@H]1[C@@H]2CN(C(=O)[C@H](C(C)(C)C)NC(=O)O[C@@H]3C[C@H]3CCCCCc3nc4ccc(OC)cc4nc3O2)[C@@H]1C(=O)N[C@]1(C(=O)NS(=O)(=O)C2CC2)C[C@H]1C(F)F` [Example 2, (1aR,5S,8S,9S,10R,22aR)-5-tert-butyl-N-[(1R,2R)-1-[(cyclopropylsulfonyl)carbamoyl]-2-(difluoromethyl)cyclopropyl]-9-ethyl-14-methoxy-3,6-dioxo-1,1a,3,4,5,6,9,10,18,19,20,21,22,22a-tetradecahydro-8H-7,10-methanocyclopropa[18,19][1,10,3,6]dioxadiazacyclononadecino[11,12-b]quinoxaline-8-carboxamide] is 8-fold lower in Ki: 0.32 nM for the first, 0.04 nM for the second. The second binds more tightly here.

First: CC[C@@H]1[C@@H]2CN(C(=O)[C@H](C(C)(C)C)NC(=O)O[C@]3(C)CCC[C@H]3CCCCCc3nc4ccc(OC)cc4nc3O2)[C@@H]1C(=O)N[C@]1(C(=O)NS(=O)(=O)C2(C)CC2)C[C@H]1CC [Example 56, (3aR,7S,10S,11S,12R,24aR)-7-tert-butyl-11-ethyl-N-[(1R,2R)-2-ethyl-1-{[(1-methylcyclopropyl)sulfonyl]carbamoyl}cyclopropyl]-16-methoxy-3a-methyl-5,8-dioxo-1,2,3,3a,5,6,7,8,11,12,20,21,22,23,24,24a-hexadecahydro-10H-9,12-methanocyclopenta[18,19][1,10,3,6]dioxadiazacyclononadecino[11,12-b]quinoxaline-10-carboxamide]
Second: CC[C@@H]1[C@@H]2CN(C(=O)[C@H](C(C)(C)C)NC(=O)O[C@@]3(C)C[C@@H]3CCCCCc3nc4ccc(OC)cc4nc3O2)[C@@H]1C(=O)N[C@]1(C(=O)NS(=O)(=O)C2(C)CC2)C[C@H]1C(F)F [Example 8, (1aS,5S,8S,9S,10R,22aS)-5-tert-butyl-N-[(1R,2R)-2-(difluoromethyl)-1-{[(1-methylcyclopropyl)sulfonyl]carbamoyl}cyclopropyl]-9-ethyl-14-methoxy-1a-methyl-3,6-dioxo-1,1a,3,4,5,6,9,10,18,19,20,21,22,22a-tetradecahydro-8H-7,10-methanocyclopropa[18,19][1,10,3,6]dioxadiazacyclononadecino[11,12-b]quinoxaline-8-carboxamide]
The Ki of the first is 2.4-fold higher: 1 nM for the first, 0.42 nM for the second.

`CC[C@@H]1[C@@H]2CN(C(=O)[C@H](C(C)(C)C)NC(=O)O[C@@H]3C[C@H]3CCCCC(F)(F)c3nc4ccccc4nc3O2)[C@@H]1C(=O)N[C@]1(C(=O)NS(=O)(=O)C2CC2)C[C@H]1CC` [Example 54, (1aR,5S,8S,9S,10R,22aR)-5-tert-butyl-N-{(1R,2R)-1-[(cyclopropylsulfonyl)carbamoyl]-2-ethylcyclopropyl}-9-ethyl-18,18-difluoro-3,6-dioxo-1,1a,3,4,5,6,9,10,18,19,20,21,22,22a-tetradecahydro-8H-7,10-methanocyclopropa[18,19][1,10,3,6]dioxadiazacyclononadecino[11,12-b]quinoxaline-8-carboxamide] showed a Ki of 0.5 nM.

same assay, conditions: read-out: Ki 3A, 200 pM enzyme, 20 μM NS4A peptide, 2 μM substrate

`COc1ccc2nc3c(nc2c1)O[C@H]1CN(C(=O)[C@H](C(C)(C)C)NC(=O)O[C@@H]2C[C@H]2CCCCC3)[C@H](C(=O)N[C@]2(C(=O)NS(=O)(=O)C3CC3)C[C@H]2CCF)[C@@H]1C` [Example 22, (1aR,5S,8S,9S,10R,22aR)-5-tert-butyl-N-[(R1R,2S)-1-[(cyclopropylsulfonyl)carbamoyl]-2-(2-fluoroethyl)cyclopropyl]-14-methoxy-9-methyl-3,6-dioxo-1,1a,3,4,5,6,9,10,18,19,20,21,22,22a-tetradecahydro-8H-7,10-methanocyclopropa[18,19][1,10,3,6]dioxadiazacyclononadecino[11,12-b]quinoxaline-8-carboxamide] and `COc1ccc2nc3c(nc2c1)O[C@H]1CN(C(=O)[C@H](C(C)(C)C)NC(=O)O[C@@H]2C[C@H]2CCCCC3)[C@H](C(=O)N[C@]2(C(=O)NS(=O)(=O)C3CC3)C[C@H]2CC(F)F)[C@@H]1C` [Example 24, (1aR,5S,8S,9S,10R,22aR)-5-tert-butyl-N-[(1R,2S)-1-[(cyclopropylsulfonyl)carbamoyl]-2-(2,2-difluoroethyl)cyclopropyl]-14-methoxy-9-methyl-3,6-dioxo-1,1a,3,4,5,6,9,10,18,19,20,21,22,22a-tetradecahydro-8H-7,10-methanocyclopropa[18,19][1,10,3,6]dioxadiazacyclononadecino[11,12-b]quinoxaline-8-carboxamide] are within 1.5-fold of each other in Ki: 1.3 nM for the first, 0.92 nM for the second.

Compound `COc1ccc2nc3c(nc2c1)O[C@H]1CN(C(=O)[C@H](C(C)(C)C)NC(=O)O[C@@H]2C[C@H]2CCCCC3)[C@H](C(=O)N[C@]2(C(=O)NS(=O)(=O)C3(C)CC3)C[C@H]2CCF)[C@@H]1C` [Example 23, (1aR,5S,8S,9S,10R,22aR)-5-tert-butyl-N-[(1R,2S)-2-(2-fluoroethyl)-1-{[(1-methylcyclopropyl)sulfonyl]carbamoyl}cyclopropyl]-14-methoxy-9-methyl-3,6-dioxo-1,1a,3,4,5,6,9,10,18,19,20,21,22,22a-tetradecahydro-8H-7,10-methanocyclopropa[18,19][1,10,3,6]dioxadiazacyclononadecino[11,12-b]quinoxaline-8-carboxamide] has a Ki of 1.1 nM.
